Source: patent publication US20210070747A1, “2(1H)-QUINOLINONE DERIVATIVE” (priority 2017, published 2021)
Values after ≈ are worked out from the molar mass of the structure shown. Where two headings read alike, the source gives them in different places.

Experiments:
[1] = target: T1, E. coli DNA gyrase (Escherichia coli, UniProt P0AES6); test: Test for evaluating the activity of inhibiting E. coli DNA gyrase enzyme (Method 2, supercoiling, recombinant gyrA/gyrB complex); assay type: biochemical
T1 construct: made in house; host or cells: E. coli BL21 (DE3)
Experimental: The enzymatic activity of E. coli DNA gyrase was measured by a method comprising reacting DNA gyrase and its substrate, relaxed pBR322 (Inspiralis), in the presence of ATP and detecting the post-reaction supercoiled pBR322/relaxed pBR322 ratio with H19.
Specifically, to 1 ng/μL of relaxed pBR322, E. coli DNA gyrase enzyme (the gyrA or gyrB gene was incorporated into the pET15b plasmid and after expressing them in E. coli BL21 (DE3), purification was performed using a Ni-NTA column to form a complex at room temperature) was added at a final concentration of 0.135 nmol/mL and the mixture was incubated for 60 minutes at room temperature. This reaction was carried out in 20 mmol/L tris-HCl buffered solution (pH 8.0) comprising 0.5 mmol/L ATP, 0.005% bridge 35, 35 mmol/L ammonium acetate, 8 mmol/L magnesium chloride, 4.6% glycerol, and 1 mmol/L dithiothreitol. To the reaction mixture, H19 was added to bring the reaction to an end; thereafter, the supercoiled pBR322/relaxed pBR322 ratio was detected at excitation wavelength/emission wavelength=485 nm/535 nm. An inhibition curve was obtained by allowing the analyte compound to be present at varying concentrations during the reaction described above.

[2] = test system: E. Coli ATCC 25922; test: Test for evaluating antibacterial activity (E. coli), broth microdilution MIC; assay type: cell-based; settings: Escherichia coli, ATCC25922; 35° C., 18 hours, cation-adjusted Mueller-Hinton medium
Experimental: Minimum inhibitory concentration (MIC) was measured using the broth microdilution method described below in accordance with a modification of the standard method specified by CLSI (Clinical & Laboratory Standards Institute).
(§1) Bacterial cells under test were cultured overnight on a heart infusion agar medium, scraped off and suspended at a concentration equivalent to McFarland 0.5 turbidity; the suspension thus obtained was diluted 10 folds to give a liquid inoculum. The inoculum (0.005 mL) was inoculated on a cation-adjusted Mueller-Hinton medium containing the analyte compound and cultured at 35° C. for 18 hours. A minimum drug concentration at which no bacterial growth was macroscopically visible was designated MIC.

[3] = test system: N. gonorrhoeae ATCC 49226; test: Test for evaluating antibacterial activity (N. gonorrhoeae), broth microdilution MIC; assay type: cell-based; settings: Neisseria gonorrhoeae, ATCC49226; 35° C., 24 hours, gonococcal broth
Experimental: Minimum inhibitory concentration (MIC) was measured using the broth microdilution method described below in accordance with a modification of the method of Geers et al. (Antimicrob. Agents. Chemother. (1989), 33, 233-234).
After sterilization, BD. Difco supplement C was added to give a final concentration of 1%, whereby a gonococcal broth was prepared.
as §1, with “chocolate II” for “heart infusion”, “5” for “10”, “gonococcal broth” for “cation-adjusted Mueller-Hinton medium”, “24” for “18”

[4] = Method 2, read-out: E. Coli Gyrase supercoiling IC50

CNc1cccc2cc(C(=O)Nc3cnc(CO)nc3)c(=O)[nH]c12 [Example 37, N-[2-(hydroxymethyl)pyrimidine-5-yl]-8-(methylamino)-2-oxo-1,2-dihydroquinoline-3-carboxamide]
IC50 [1, 4]: 9.97 nM | MIC [2]: > 4 µg/mL | MIC [3]: 1 µg/mL (≈ 3.07 µM)

CNc1cc(F)cc2cc(C(=O)Nc3c(C)cc(C(=O)O)cc3CN(C)C3CCCCC3)c(=O)[nH]c12 [Example 99, 3-{[cyclohexyl (methyl)amino]methyl}-4-{[6-fluoro-8-(methylamino)-2-oxo-1,2-dihydroquinoline-3-carbonyl]amino}-5-methylbenzoic acid]
IC50 [1, 4]: 0.7 nM | MIC [2]: 64 µg/mL (≈ 129 µM) | MIC [3]: 0.25 µg/mL (≈ 0.505 µM)

CNc1cc(F)cc2cc(C(=O)Nc3ccccc3CN(CC(=O)O)C3CCCCC3)c(=O)[nH]c12 [Example 103, N-cyclohexyl-N-[(2-{[6-fluoro-8-(methylamino)-2-oxo-1,2-dihydroquinoline-3-carbonyl]amino}phenyl)methyl]glycine]
IC50 [1]: 12.1 nM | MIC [2]: > 64 µg/mL | MIC [3]: 4 µg/mL (≈ 8.32 µM)

CNc1cc(F)cc2cc(C(=O)Nc3ccc(S(C)(=N)=O)cc3)c(=O)[nH]c12 (centres unmarked) [Example 151, 6-Fluoro-N-[4-(S-methanesulfonimidoyl)phenyl]-8-(methylamino)-2-oxo-1,2-dihydroquinoline-3-carboxamide]
IC50 [1]: 21.4 nM | MIC [2]: > 16 µg/mL | MIC [3]: 0.5 µg/mL (≈ 1.29 µM)

CNc1cc(F)cc2cc(CNc3ccc(C(=O)O)cc3)c(=O)[nH]c12 [Example 163, 4-([[6-Fluoro-8-(methylamino)-2-oxo-1,2-dihydroquinoline-3-yl]methyl]amino)benzoic Acid]
IC50 [1, 4]: 2100 nM | MIC [2]: > 32 µg/mL | MIC [3]: > 1 µg/mL

CNc1cc(F)cc2c(O)c(C(=O)Nc3cncnc3)c(=O)[nH]c12 [Example 138, 6-fluoro-4-hydroxy-8-(methylamino)-2-oxo-N-(pyrimidine-5-yl)-1,2-dihydroquinoline-3-carboxamide]
IC50 [1, 4]: 129 nM | MIC [2]: 32 µg/mL (≈ 97.2 µM) | MIC [3]: 0.06 µg/mL (≈ 0.182 µM)

CNc1cccc2cc(C(=O)NCCc3nc(O)cc(O)n3)c(=O)[nH]c12 [Example 32, N-[2-(4,6-dihydroxy-pyrimidine-2-yl)ethyl]-8-(methylamino)-2-oxo-1,2-dihydroquinoline-3-carboxamide]
IC50 [1, 4]: 25.3 nM | MIC [2]: > 64 µg/mL | MIC [3]: > 4 µg/mL

CNc1cccc2cc(C(=O)NCc3ccc(C(=O)O)cc3)c(=O)[nH]c12 [Example 6, 4-({[8-(methylamino)-2-oxo-1,2-dihydroquinoline-3-carbonyl]amino}methyl)benzoic acid]
MIC [2]: > 64 µg/mL | MIC [3]: 4 µg/mL (≈ 11.4 µM)

CNc1cc(F)cc2cc(C(=O)Nc3ccc(C(=O)NS(C)(=O)=O)cc3)c(=O)[nH]c12 [Example 145, 6-fluoro-N-{4-[(methanesulfonyl)carbamoyl]phenyl}-8-(methylamino)-2-oxo-1,2-dihydroquinoline-3-carboxamide]
IC50 [1, 4]: 0.19 nM | MIC [2]: > 32 µg/mL | MIC [3]: 0.06 µg/mL (≈ 0.139 µM)

CNc1cc(F)cc2cc(C(=O)Nc3ccc(-c4noc(=O)[nH]4)cc3)c(=O)[nH]c12 [Example 144, 6-fluoro-8-(methylamino)-2-oxo-N-[4-(5-oxo-4,5-dihydro-1,2,4-oxadiazole-3-yl)phenyl]-1,2-dihydroquinoline-3-carboxamide]
IC50 [1, 4]: 0.48 nM | MIC [2]: > 8 µg/mL | MIC [3]: 0.004 µg/mL (≈ 0.0101 µM)

CNc1cc(F)cc2c(OC)c(C(=O)Nc3ccc(C(=O)O)cc3)c(=O)[nH]c12 [Example 118, 4-[[6-Fluoro-4-methoxy-8-(methylamino)-2-oxo-1,2-dihydroquinoline-3-carbonyl]amino]benzoic Acid]
inhibition at 0.1 µM ([1]; Method 2, at 100 nM): 45% | MIC [2]: > 64 µg/mL | MIC [3]: 1 µg/mL (≈ 2.6 µM)

O=C(O)c1ccc(NC(=O)c2cc3ccccc3[nH]c2=O)cc1 [Reference Example 1, 4-[(2-Oxo-1,2-dihydroquinoline-3-carbonyl)amino]benzoic Acid, reference compound]
IC50 [1, 4]: 7010 nM | MIC [2]: > 64 µg/mL | MIC [3]: > 1 µg/mL

CNc1cc(F)cc2c(O)c(C(=O)Nc3ccc(C(=O)NS(C)(=O)=O)cc3)c(=O)[nH]c12 [Example 147, 6-Fluoro-4-hydroxy-N-[4-[(methanesulfonyl)carbamoyl]phenyl]-8-(methylamino)-2-oxo-1,2-dihydroquinoline-3-carboxamide]
IC50 [1, 4]: 1.75 nM | MIC [2]: > 32 µg/mL | MIC [3]: 0.008 µg/mL (≈ 0.0178 µM)

CNc1cc(F)cc2cc(C(=O)Nc3cnccc3CN(C)C3CCCCC3)c(=O)[nH]c12 [Example 95, N-(4-{[cyclohexyl(methyl)amino]methyl}pyridine-3-yl)-6-fluoro-8-(methylamino)-2-oxo-1,2-dihydroquinoline-3-carboxamide]
IC50 [1]: 2.16 nM | MIC [2]: > 16 µg/mL | MIC [3]: 1 µg/mL (≈ 2.29 µM)

CNc1cc(F)cc2cc(C(=O)Nc3cnccc3CO)c(=O)[nH]c12 [Example 91, 6-Fluoro-N-[4-(hydroxymethyl)pyridin-3-yl]-8-(methylamino)-2-oxo-1,2-dihydroquinoline-3-carboxamide]
IC50 [1, 4]: 18.6 nM | MIC [2]: > 16 µg/mL | MIC [3]: 1 µg/mL (≈ 2.92 µM)

CNc1cccc2cc(C(=O)NCCc3ccc(C(=O)O)cc3)c(=O)[nH]c12 [Example 167, 4-(2-{[8-(methylamino)-2-oxo-1,2-dihydroquinoline-3-carbonyl]amino}ethyl)benzoic acid]
IC50 [1, 4]: 134 nM | MIC [2]: > 32 µg/mL

CNc1cc(F)cc2cc(C(=O)NCCc3ccc(O)c(OC)c3)c(=O)[nH]c12 [Example 81, 6-fluoro-N-[2-(4-hydroxy-3-methoxyphenyl)ethyl]-8-(methylamino)-2-oxo-1,2-dihydroquinoline-3-carboxamide]
IC50 [1, 4]: 110 nM | MIC [3]: > 1 µg/mL

CNc1cccc2cc(C(=O)Nc3cnc(NCCCN(CCO)CCO)nc3)c(=O)[nH]c12 [Example 41, N-[2-({3-[bis(2-hydroxyethyl)amino]propyl}amino)pyrimidine-5-yl]-8-(methylamino)-2-oxo-1,2-dihydroquinoline-3-carboxamide]
IC50 [1, 4]: 149 nM | MIC [2]: > 64 µg/mL

CNc1cc(F)cc2cc(C(=O)Nc3cnc(C(=O)NCCCN4CCOCC4)nc3)c(=O)[nH]c12 [Example 82, 6-fluoro-8-(methylamino)-N-(2-{[3-(morpholine-4-yl)propyl]carbamoyl}pyrimidine-5-yl)-2-oxo-1,2-dihydroquinoline-3-carboxamide]
IC50 [1, 4]: 0.47 nM | MIC [2]: 0.25 µg/mL (≈ 0.517 µM)

CNc1cc(F)cc2c(NCC3(N)CCC3)c(C(=O)Nc3ccc(C(=O)O)cc3)c(=O)[nH]c12.O=CO [Example 140, 4-{[4-{[(1-aminocyclobutyl)methyl]amino}-6-fluoro-8-(methylamino)-2-oxo-1,2-dihydroquinoline-3-carbonyl]amino}benzoic acid-formate]
IC50 [1]: 2.15 nM | MIC [2]: > 32 µg/mL

CNc1cccc2cc(C(=O)Nc3cnc(N4CCC(N)(C(=O)O)CC4)nc3)c(=O)[nH]c12.Cl [Example 39, 4-Amino-1-(5-[[8-(methylamino)-2-oxo-1,2-dihydroquinoline-3-carbonyl]amino]pyrimidin-2-yl)piperidine-4-carboxylic acid-hydrochloride]
IC50 [1]: 48.7 nM | MIC [2]: > 8 µg/mL

CNc1cc(F)cc2cc(C(=O)Nc3ccc(C(=O)NCCN4CCOCC4)cc3C)c(=O)[nH]c12 [Example 86, 6-fluoro-8-(methylamino)-N-(2-methyl-4-{[2-(morpholine-4-yl)ethyl]carbamoyl}phenyl)-2-oxo-1,2-dihydroquinoline-3-carboxamide]
IC50 [1, 4]: 34.4 nM | MIC [2]: > 4 µg/mL

CNc1cccc2cc(C(=O)NCCc3noc(=O)[nH]3)c(=O)[nH]c12 [Example 36, 8-(methylamino)-2-oxo-N-[2-(5-oxo-4,5-dihydro-1,2,4-oxadiazole-3-y1)ethyl]-1,2-dihydroquinoline-3-carboxamide]
IC50 [1, 4]: 71.9 nM | MIC [2]: > 32 µg/mL

CNCCc1c(C(=O)Nc2ccc(C(=O)O)cc2)c(=O)[nH]c2c(NC)cc(F)cc12.O=C(O)C(F)(F)F [Example 130, 4-([6-Fluoro-8-(methylamino)-4-[2-(methylamino)ethyl]-2-oxo-1,2-dihydroquinoline-3-carbonyl]amino)benzoic acid-trifluoroacetate]
IC50 [1]: 109 nM | MIC [2]: > 8 µg/mL
